Reference: patent US20260138976A1 (Hoffmann-La Roche Inc., priority 2022, published 2026)

Test system: primary human T-cells
Assay: IL2 secretion measurements (24 h, CD3-stimulated T-cells, PBS counter screen)
Type: cell-based
Conditions: for Emax IL2 (% activation): CD3 condition, normalised to DMSO (neutral) and 20 μM reference compound A1 = 100%; for EC50: Homo sapiens, T-cell, CD3-stimulated primary human T-cells, IL2 secretion, fitted sigmoidal curve, read-out: Tcell IL2 CD3 EC50
Summary of the method: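 IL-2 secretion was measured by ProQuantum or ELISA after 24 h culture of expanded human T-cells with compound, on CD3-antibody-coated plates or PBS counter-screen plates. Dosing used 5–6 points from a 20 or 10 μM final top at 3.333-fold steps in 0.2% DMSO. EC50/Emax were scaled between DMSO and 20 μM reference A1.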

| Compound | Emax IL2 (% activation) | EC50 [nM] |
| --- | --- | --- |
| CC(C)(C#N)c1nnc(-c2ccc3c(c2)N(Cc2ccc(-c4ccc(C5CC5)cn4)cc2)C(=O)[C@@H](N)CS3(=O)=O)o1 [Example 118, 2-[5-[(3R)-3-amino-5-[[4-(5-cyclopropyl-2-pyridyl)phenyl]methyl]-1,1,4-trioxo-2,3-dihydro-1λ^6,5-benzothiazepin-7-yl]-1,3,4-oxadiazol-2-yl]-2-methyl-propanenitrile] | 172 | 4070 |
| CC(C)(C#N)c1nnc(-c2ccc3c(c2)N(Cc2ccc(-c4ccc(OC(F)(F)F)cc4)nc2)C(=O)[C@@H](N)CS3(=O)=O)o1 [Example 119, 2-[5-[(3R)-3-amino-1,1,4-trioxo-5-[[6-[4-(trifluoromethoxy)phenyl]-3-pyridyl]methyl]-2,3-dihydro-1λ^6,5-benzothiazepin-7-yl]-1,3,4-oxadiazol-2-yl]-2-methyl-propanenitrile] | 102 | 1280 |
| CC(C)(C#N)c1nnc(-c2ccc3c(c2)N(Cc2ccc(-n4nnc(C(F)(F)F)n4)cc2)C(=O)[C@@H](N)CS3(=O)=O)o1 [Example 120, 2-[5-[(3R)-3-amino-1,1,4-trioxo-5-[[4-[5-(trifluoromethyl)tetrazol-2-yl]phenyl]methyl]-2,3-dihydro-1λ^6,5-benzothiazepin-7-yl]-1,3,4-oxadiazol-2-yl]-2-methyl-propanenitrile] | 135 | 1330 |
| CC(C)(C#N)c1nnc(-c2ccc3c(c2)N(Cc2ccc(-c4nc(C(F)(F)F)co4)cc2)C(=O)[C@@H](N)CS3(=O)=O)o1 [Example 123, 2-[5-[(3R)-3-amino-1,1,4-trioxo-5-[[4-[4-(trifluoromethyl)oxazol-2-yl]phenyl]methyl]-2,3-dihydro-1λ^6,5-benzothiazepin-7-yl]-1,3,4-oxadiazol-2-yl]-2-methyl-propanenitrile] | 144 | 1250 |
| COc1ccc(-c2ccc(CN3C(=O)[C@@H](N)CS(=O)(=O)c4ccc(-c5nnc(C(C)(C)C#N)o5)cc43)cc2)nc1 [Example 125] | 97 | 4280 |
| CC(C)(C#N)c1nnc(-c2ccc3c(c2)N(Cc2ccc(-c4cc(OC(F)(F)F)ccn4)cc2)C(=O)[C@@H](N)CS3(=O)=O)o1 [Example 126, 2-[5-[(3R)-3-amino-1,1,4-trioxo-5-[[4-[4-(trifluoromethoxy)-2-pyridyl]phenyl]methyl]-2,3-dihydro-1λ^6,5-benzothiazepin-7-yl]-1,3,4-oxadiazol-2-yl]-2-methyl-propanenitrile] | 254 | 2110 |
| CC(C)(C#N)c1nnc(-c2ccc3c(c2)N(Cc2ccc(-c4ncc(C(F)(F)F)cn4)cc2)C(=O)[C@@H](N)CS3(=O)=O)o1 [Example 127, 2-[5-[(3R)-3-amino-1,1,4-trioxo-5-[[4-[5-(trifluoromethyl)pyrimidin-2-yl]phenyl]methyl]-2,3-dihydro-1λ^6,5-benzothiazepin-7-yl]-1,3,4-oxadiazol-2-yl]-2-methyl-propanenitrile] | 112 | 4560 |
| CC(C)(C#N)c1nnc(-c2ccc3c(c2)N(Cc2ccc(-c4ccc(OC(F)(F)C(F)(F)F)cn4)cc2)C(=O)[C@@H](N)CS3(=O)=O)o1 [Example 129, 2-[5-[(3R)-3-amino-1,1,4-trioxo-5-[[4-[5-(1,1,2,2,2-pentafluoroethoxy)-2-pyridyl]phenyl]methyl]-2,3-dihydro-1λ^6,5-benzothiazepin-7-yl]-1,3,4-oxadiazol-2-yl]-2-methyl-propanenitrile] | 187 | 552 |
| N[C@H]1CS(=O)(=O)c2ccc(-c3nnc(C4(C(F)F)CNC4)o3)cc2N(Cc2ccc(-c3ccc(C(F)(F)F)cc3)cc2)C1=O [Example 152] | 19 | > 10000 |
